We go through one molecule from article PMC7614683, “A small molecule PI3Kα activator for cardioprotection and neuroregeneration” (Nature, 2023).

Common to all, as to assay: SelectScreen LanthaScreen Binding
Details in all cases: 1000 nM
For orientation: TR-FRET usually uses a lanthanide donor and a delayed reading to cut background.

The target of one test is T1, MAP4K3 (GLK) (Homo sapiens, UniProt Q8IVH8).
T1 sequence (Q8IVH8 1-894): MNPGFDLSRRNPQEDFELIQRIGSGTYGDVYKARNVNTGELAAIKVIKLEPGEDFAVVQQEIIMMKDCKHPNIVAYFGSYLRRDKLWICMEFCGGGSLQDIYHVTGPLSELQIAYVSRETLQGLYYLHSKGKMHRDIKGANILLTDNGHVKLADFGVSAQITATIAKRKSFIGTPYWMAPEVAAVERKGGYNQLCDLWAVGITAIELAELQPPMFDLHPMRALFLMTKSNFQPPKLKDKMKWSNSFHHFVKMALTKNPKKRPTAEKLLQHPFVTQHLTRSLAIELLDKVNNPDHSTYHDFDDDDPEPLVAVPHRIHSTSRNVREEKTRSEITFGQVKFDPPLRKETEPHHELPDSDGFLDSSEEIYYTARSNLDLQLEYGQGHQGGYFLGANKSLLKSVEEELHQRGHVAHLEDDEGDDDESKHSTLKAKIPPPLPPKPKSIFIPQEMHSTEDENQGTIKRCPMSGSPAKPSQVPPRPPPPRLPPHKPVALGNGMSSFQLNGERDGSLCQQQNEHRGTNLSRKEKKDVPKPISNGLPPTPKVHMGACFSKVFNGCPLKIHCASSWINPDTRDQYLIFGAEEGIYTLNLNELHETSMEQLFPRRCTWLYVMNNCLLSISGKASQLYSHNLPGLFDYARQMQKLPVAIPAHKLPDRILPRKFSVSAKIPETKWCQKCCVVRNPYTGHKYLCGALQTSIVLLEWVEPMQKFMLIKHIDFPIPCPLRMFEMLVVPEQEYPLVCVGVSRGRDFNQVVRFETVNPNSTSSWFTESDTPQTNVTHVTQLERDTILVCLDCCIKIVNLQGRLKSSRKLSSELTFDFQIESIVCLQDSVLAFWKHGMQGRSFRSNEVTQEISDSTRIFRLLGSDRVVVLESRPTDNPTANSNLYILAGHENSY
As for the experimental part:
(§1) 133 protein kinases and 7 lipid kinases were counterscreened, with 1938 used at 1 μM, using the Adapta, Lantha and Z-LYTE assays (SelectScreen Kinase Profiling Service; Thermofisher – experimental details of these assays can be found here: https://www.thermofisher.com/uk/en/home/industrial/pharma-biopharma/drug-discovery-development/target-and-lead-identification-and-validation/kinasebiology/kinase-activity-assays.html. The tree represention in KinMap[59] generated courtesy of Cell Signaling Technology, Inc. (www.cellsignal.com). mTORC1 (mTOR/RAPTOR/LST8) protein complex and ATM kinase and substrates were produced as previously described[57],[60]. Screening of 1938 was conducted using SuperSep Phos-Tag 50 μmol/l 100 x 100 x 6.6 mm 17-well (192-18001/199-18011) gels. For ATM assays, 100 nM ATM was incubated for 30 min at 30°C with 5 μM GST-p53 and 1 mM ATP, in the absence or presence of 200 μM 1938 in ATM Kinase Buffer (50 mM HEPES pH 7.5, 100 mM NaCl, 10% glycerol, 2 mM […], 5 mM MgCl2). As a positive control for ATM activation, the same reaction was carried out with 100 nM ATM/5 μM GST-p53/1 mM ATP in the presence of 100 nM Mre11-Rad50-Nbs1 (MRN) complex, a known activator of ATM[61]. For mTORC1 assays, 50 nM mTORC1 complex (mTOR/LST8/RAPTOR) was incubated for 3 h at 30°C with 15 μM 4E-BP1, 10 mM MgCl2 and 250 μM ATP, in the absence or presence of 200 μM 1938. As a ‘positive’ control, a higher concentration (150 nM) of mTORC1 complex (mTOR/LST8/RAPTOR) was incubated for 3 h at 30°C with 15 μM 4E-BP1, 10 mM MgCl2 and 250 μM ATP. Kinase reactions were quenched by addition of SDS-PAGE Loading Buffer (as per manufacturer’s instructions) and freezing at -20°C before being run on the Phos-tag gels at 150 V for 90 min. Gels were then stained using InstantBlue™ Coomassie, and quantified using BioRad Image Lab Software. Kinase assays were carried out in triplicate.

The target of another test is MAP4K1 (HPK1) (Homo sapiens, UniProt Q92918). The protocol: as §1
The target of a further test is AAK1 (Homo sapiens, UniProt Q2M2I8). As for the experimental part:
as §1

In the next test the target is MYLK (MLCK) (Homo sapiens, UniProt Q15746). The protocol: as §1
For another test, the target named is CLK4 (Homo sapiens, UniProt Q9HAZ1). As for the experimental part:
as §1

Test [1] addresses T2, MAP3K7/MAP3K7IP1 (TAK1-TAB1) (Homo sapiens, UniProt O43318).
T2 sequence (O43318 with tags, fused parts or gaps limits assumed): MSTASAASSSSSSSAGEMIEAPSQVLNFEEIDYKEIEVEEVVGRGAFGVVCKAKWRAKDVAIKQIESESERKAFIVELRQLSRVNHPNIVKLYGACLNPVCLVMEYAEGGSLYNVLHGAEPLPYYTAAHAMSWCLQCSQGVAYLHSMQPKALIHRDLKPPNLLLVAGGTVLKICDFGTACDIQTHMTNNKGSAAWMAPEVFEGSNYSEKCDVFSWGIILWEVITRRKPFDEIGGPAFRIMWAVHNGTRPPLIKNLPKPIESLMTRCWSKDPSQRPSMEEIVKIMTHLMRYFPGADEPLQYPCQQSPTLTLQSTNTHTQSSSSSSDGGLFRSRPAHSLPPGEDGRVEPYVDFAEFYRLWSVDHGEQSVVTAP
The protocol: as §1

The next test concerns the target FGFR1 V561M (Homo sapiens, UniProt P11362, V561M). As for the experimental part: as §1

Chain of AAK1 (Q2M2I8 whole entry): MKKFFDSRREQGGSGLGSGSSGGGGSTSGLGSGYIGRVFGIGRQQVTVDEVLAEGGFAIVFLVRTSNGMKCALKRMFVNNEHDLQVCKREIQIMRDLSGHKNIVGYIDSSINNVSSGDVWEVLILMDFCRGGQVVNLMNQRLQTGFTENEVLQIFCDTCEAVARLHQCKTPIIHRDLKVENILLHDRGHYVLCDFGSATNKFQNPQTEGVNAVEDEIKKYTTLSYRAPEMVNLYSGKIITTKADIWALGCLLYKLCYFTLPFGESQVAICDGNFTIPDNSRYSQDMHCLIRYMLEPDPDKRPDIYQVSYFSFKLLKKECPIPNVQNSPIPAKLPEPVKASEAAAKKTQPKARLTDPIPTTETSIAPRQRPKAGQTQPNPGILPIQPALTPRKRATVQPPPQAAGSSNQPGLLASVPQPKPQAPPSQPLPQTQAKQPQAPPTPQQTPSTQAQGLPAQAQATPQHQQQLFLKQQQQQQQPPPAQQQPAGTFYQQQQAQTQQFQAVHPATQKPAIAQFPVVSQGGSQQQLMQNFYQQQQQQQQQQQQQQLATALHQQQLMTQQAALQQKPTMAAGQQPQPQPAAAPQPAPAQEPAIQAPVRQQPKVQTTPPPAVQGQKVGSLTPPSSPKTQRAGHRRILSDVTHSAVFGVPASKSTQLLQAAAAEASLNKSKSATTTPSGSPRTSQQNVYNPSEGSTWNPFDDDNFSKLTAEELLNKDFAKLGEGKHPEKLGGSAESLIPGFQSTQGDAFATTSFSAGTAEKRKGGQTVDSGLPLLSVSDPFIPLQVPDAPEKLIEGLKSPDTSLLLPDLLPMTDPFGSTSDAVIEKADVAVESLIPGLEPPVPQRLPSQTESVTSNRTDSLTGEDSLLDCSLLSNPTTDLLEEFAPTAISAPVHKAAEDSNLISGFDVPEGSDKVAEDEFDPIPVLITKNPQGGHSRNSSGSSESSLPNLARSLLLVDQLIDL
Chain of MYLK (MLCK) (Q15746 whole entry): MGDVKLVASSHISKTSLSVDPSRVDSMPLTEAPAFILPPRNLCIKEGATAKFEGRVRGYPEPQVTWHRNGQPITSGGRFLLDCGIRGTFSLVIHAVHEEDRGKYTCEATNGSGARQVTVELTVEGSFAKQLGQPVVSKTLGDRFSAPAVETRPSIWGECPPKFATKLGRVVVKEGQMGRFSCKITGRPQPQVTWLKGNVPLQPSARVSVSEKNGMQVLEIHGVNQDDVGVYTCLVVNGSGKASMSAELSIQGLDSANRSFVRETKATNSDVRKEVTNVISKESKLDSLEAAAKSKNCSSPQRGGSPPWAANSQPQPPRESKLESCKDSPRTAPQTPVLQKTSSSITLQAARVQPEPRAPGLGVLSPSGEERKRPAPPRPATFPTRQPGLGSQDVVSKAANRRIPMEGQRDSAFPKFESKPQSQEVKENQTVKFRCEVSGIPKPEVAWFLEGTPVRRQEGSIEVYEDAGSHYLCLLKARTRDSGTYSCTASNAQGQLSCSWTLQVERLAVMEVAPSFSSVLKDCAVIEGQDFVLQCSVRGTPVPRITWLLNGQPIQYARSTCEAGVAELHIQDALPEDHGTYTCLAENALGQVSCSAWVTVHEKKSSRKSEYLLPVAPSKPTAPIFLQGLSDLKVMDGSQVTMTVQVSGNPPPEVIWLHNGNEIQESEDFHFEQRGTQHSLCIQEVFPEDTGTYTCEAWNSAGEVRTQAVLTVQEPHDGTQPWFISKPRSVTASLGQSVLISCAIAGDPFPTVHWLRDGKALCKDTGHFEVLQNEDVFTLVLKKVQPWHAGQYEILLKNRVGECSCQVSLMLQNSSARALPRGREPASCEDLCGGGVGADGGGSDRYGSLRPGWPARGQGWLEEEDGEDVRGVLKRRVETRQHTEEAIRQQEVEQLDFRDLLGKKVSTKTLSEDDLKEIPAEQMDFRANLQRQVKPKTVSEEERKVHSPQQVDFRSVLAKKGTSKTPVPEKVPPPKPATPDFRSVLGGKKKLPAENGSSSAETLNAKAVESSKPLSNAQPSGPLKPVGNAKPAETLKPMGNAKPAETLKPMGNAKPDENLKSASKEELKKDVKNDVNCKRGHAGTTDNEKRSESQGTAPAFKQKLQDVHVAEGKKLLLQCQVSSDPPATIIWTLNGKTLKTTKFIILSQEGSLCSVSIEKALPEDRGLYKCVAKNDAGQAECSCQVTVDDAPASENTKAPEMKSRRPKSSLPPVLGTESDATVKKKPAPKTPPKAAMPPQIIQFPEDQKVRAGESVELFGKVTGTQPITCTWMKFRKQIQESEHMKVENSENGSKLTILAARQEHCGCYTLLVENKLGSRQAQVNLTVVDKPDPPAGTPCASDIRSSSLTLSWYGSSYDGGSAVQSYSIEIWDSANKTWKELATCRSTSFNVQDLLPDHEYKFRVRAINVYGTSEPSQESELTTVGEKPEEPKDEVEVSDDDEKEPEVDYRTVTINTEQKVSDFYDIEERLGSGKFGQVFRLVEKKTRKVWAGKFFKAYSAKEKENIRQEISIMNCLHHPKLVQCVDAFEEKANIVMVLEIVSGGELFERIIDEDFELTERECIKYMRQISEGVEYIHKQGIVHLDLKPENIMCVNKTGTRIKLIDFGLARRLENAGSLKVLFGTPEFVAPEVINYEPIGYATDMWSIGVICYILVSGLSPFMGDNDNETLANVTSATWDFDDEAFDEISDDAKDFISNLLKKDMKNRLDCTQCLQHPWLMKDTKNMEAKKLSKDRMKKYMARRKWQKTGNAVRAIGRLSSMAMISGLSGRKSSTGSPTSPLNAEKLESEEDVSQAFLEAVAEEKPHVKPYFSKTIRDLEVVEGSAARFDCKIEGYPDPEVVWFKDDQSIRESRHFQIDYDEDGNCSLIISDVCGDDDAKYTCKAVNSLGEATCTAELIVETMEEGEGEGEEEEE
Chain of CLK4 (Q9HAZ1 whole entry): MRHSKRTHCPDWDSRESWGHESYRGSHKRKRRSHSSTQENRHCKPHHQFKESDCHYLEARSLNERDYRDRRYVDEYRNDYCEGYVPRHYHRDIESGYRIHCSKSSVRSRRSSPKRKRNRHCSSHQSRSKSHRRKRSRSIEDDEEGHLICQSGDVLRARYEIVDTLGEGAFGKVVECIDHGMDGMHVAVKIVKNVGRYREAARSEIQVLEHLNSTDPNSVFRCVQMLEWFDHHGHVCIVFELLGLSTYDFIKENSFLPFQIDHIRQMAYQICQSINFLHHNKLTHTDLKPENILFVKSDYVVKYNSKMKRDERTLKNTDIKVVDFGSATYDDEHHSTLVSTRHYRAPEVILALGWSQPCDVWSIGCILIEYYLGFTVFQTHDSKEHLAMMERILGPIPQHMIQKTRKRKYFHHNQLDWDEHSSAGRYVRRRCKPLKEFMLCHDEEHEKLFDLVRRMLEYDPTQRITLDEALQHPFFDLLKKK
Chain of MAP4K1 (HPK1) (Q92918 whole entry): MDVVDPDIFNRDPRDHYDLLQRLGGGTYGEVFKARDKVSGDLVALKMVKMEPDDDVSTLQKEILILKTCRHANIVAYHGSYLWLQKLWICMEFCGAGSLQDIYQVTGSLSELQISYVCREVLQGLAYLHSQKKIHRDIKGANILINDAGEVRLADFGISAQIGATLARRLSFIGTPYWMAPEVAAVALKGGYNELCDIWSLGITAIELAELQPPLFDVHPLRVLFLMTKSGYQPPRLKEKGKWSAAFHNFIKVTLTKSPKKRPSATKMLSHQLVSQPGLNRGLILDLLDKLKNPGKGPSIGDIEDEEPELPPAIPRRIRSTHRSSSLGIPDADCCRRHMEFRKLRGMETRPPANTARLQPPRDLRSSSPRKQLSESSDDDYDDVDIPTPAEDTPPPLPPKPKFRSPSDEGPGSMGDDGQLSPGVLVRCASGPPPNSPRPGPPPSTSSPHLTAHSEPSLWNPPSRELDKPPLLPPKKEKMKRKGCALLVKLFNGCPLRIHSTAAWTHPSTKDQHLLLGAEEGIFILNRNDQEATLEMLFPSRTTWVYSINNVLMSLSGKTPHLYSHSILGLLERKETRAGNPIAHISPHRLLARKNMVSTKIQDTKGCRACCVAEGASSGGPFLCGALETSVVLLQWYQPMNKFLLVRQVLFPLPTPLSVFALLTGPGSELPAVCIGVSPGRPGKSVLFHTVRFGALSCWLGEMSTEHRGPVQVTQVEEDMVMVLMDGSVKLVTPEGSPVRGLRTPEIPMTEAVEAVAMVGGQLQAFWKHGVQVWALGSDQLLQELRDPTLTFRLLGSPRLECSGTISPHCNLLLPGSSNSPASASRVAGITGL
Chain of FGFR1 V561M (P11362 22-822 V561M): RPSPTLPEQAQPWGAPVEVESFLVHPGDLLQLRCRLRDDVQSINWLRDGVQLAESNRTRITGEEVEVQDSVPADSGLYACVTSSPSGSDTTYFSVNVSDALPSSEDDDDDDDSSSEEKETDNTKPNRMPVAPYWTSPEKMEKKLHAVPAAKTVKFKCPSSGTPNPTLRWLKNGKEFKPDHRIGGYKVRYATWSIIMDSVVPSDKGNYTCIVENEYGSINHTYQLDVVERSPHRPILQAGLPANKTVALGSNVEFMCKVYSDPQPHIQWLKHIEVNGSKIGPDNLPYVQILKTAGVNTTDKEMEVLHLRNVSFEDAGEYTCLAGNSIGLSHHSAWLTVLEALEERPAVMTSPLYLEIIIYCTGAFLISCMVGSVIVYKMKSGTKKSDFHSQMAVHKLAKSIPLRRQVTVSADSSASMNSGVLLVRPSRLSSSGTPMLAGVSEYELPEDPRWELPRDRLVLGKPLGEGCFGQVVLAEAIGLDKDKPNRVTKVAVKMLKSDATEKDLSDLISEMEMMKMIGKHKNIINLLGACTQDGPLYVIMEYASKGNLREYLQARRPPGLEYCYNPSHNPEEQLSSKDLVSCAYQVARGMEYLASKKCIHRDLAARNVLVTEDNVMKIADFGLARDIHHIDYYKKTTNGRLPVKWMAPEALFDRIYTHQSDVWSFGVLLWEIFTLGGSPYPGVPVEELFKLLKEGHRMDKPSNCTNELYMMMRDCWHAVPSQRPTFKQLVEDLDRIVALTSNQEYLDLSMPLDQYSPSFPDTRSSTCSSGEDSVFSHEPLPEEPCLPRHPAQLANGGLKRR

For `CCN1CCN(c2ccc(Nc3cc(Nc4cccc5c4N(C(C)=O)CC5)ccn3)cc2)CC1` [Compound 1938], the “% Displacement Point 1” value is recorded as -1.29% on MAP4K3 (GLK); -3.25% at MAP4K1 (HPK1); 26% on AAK1; 1.85% on MYLK (MLCK); 1.72% on CLK4; 1% in test [1]. Moreover, on FGFR1 V561M, the “% Displacement Point 1” value is 8%. The “% Displacement Point 2” value at MAP4K3 (GLK) is listed as 0.495%; on MAP4K1 (HPK1), 6.64%; at AAK1 it was 25%; at MYLK (MLCK), 2.24%; at CLK4, 6.61%; in test [1], -0.557%. For the same molecule, the “% Displacement Point 2” value on FGFR1 V561M was 8.43%. Further, the “% Displacement mean” value on MAP4K3 (GLK) was -0.396%; on MAP4K1 (HPK1) it was 1.7%; at AAK1 it was 25%; at MYLK (MLCK), 2%; on CLK4, 4%; in test [1], 0.201%. In addition, the “% Displacement mean” value at FGFR1 V561M turned out to be 8%.
